Where a SMILES comes first, the peptide text is derived from it. Bridges are numbered along the chain shown (N, C = ends).
Tests used:
[1] = biological target: FVII binding to immobilized rTF (Homo sapiens, UniProt P13726); assay: ELISA assay of inhibition of FVII binding to immobilized rTF; settings: for inhibition at 500 µM: peptide 0.5 mM
Experimental: FIG. 13 ELISA assay of the inhibition of FVII binding to immobilized rTF produced by synthetic FVII peptides (all at 0.5 mM). For peptide sequences see the table of peptides below (page 19). C and L denote the cyclic and linear forms respectively of peptides with terminal cysteines.
The inhibition results shown in FIG. 13 indicate that in addition to sequences from the "hinge" region (i.e. residues 41-48 between the GLA domain and the first EGF domain, […]) and from the first EGF domain itself (i.e. residues 50-61; Clarke et al), there exist additional sequences in the second EGF domain (especially 95-104) which are inhibitors when presented as peptides in this binding assay.

[2] = biological target: T1, tissue factor (TF) expressed on the surface of living cells (Homo sapiens, UniProt P13726); assay: Assay of cell-surface TF initiated coagulation of plasma (microcarrier coagulation assay); assay type: cell-based; settings: peptide 0.5 mM
T1 construct: induced by tissue factor (TF) expressed on the surface of living cells; endogenous in cells; host or cells: living cells on Cytodex-3 microcarriers (e.g. human HT-1080 or ECV-304)
Experimental: FIGS. 9A-9C Principle of the microcarrier assay of cell-surface mediated coagulation of blood plasma. Living cells (e.g., human HT-1080 fibrosarcoma; ATCC CRL 121) adherent on the surface of microcarriers are mixed with a calcium-containing buffer and plasma in the incubation well of a Thrombotrack™ electromagnetic coagulometer (Nycomed). The clotting time is measured by the increase in resistance to movement of a magnetic ball produced by the formation of fibrin fibres. HT-1080 cells adherent on Cytodex-3 microcarriers are shown in FIG. 9C as an example of the types of cells expressing TF which may be used.
Assay of Cell-surface TF Initiated Coagulation of Plasma
A novel assay system has been devised to measure the coagulation of blood plasma (i.e. clotting time) induced by tissue factor (TF) expressed on the surface of living cells. This assay makes use of human or animal cells adherent on the surface of microcarriers (see FIG. 9), which enables reproducible presentation of known amounts of TF activity in the stirred measuring well of an electromagnetic coagulometer. The cells used may be normal or transformed, and representing phenotypes such as monocytes, endothelium, fibroblasts etc (see FIG. 10).
This novel assay has been particularly developed and characterised so as to be highly useful in determining the effect of synthetic peptides and peptidomimetic compounds on the extrinsic pathway of coagulation, using living cells in a plasma milieu. Results for the inhibitory effect of synthetic peptides based upon the amino acid sequence of human FVII are disclosed.
The microcarrier cell preparation is made as follows. Cells obtained from primary isolates or subcultures of transformed lines (see FIG. 10) are suspended in a small volume of serum-containing medium and mixed with microcarriers (Cytodex-3, Pharmacia) in a ratio of about 50-100 cells/microcarrier. The cells are usually adhere nt on the microcarriers within 2 hours, and can then be transferred to normal roller bottles with a larger volume of culture medium. Uniform coverage of microcarriers with about 20-60 cells can be obtained directly with transformed cells, when large cell numbers are available, or after 2 days growth when primary cultures (e.g. umbilical vein endothelial cells) are used. […]
To assay the extrinsic coagulation activity, the microcarrier cell preparations are first washed with a calcium-free buffer to remove bound serum factors. A calcium-containing buffer and plasma are then added and the clotting time is determined automatically in an electromagnetic coagulometer. […]

FVIIa/TF = biological target: T2, FVIIa/TF (Homo sapiens, UniProt P13726); assay: Kinetics of inhibition of FX activation (assay of FVIIa/TF activity); assay type: biochemical; settings: varying FVII-5 and Factor X concentrations
T2 construct: purchased Behringwerk (TF, Thromborel); Diagnostica Stago (FVIIa)
Experimental: Peptides (0-1 mM) were preincubated in 0.1 M Tris.HCl pH 7.2 with tissue factor (Thromborel®, Behringwerk, Marburg, Germany; 0.2% final concentration) at 22° C. for 30 minutes, then Factor X (American Diagnostica Inc., Greenwich, Conn. USA; 70 nM was added followed by FVIIa (Diagnostica Stago, Asnieres, France; 8 pM and CaCl2 (5 mM). Incubations were continued for 30 minutes and quenched with EDTA (50 mM) which removes essential Ca^2+. The FXa produced was quantified by monitoring hydrolysis of the chromegenic FX substrate S-2222 (Chromogenix,Molndal, Sweden).
The kinetics of inhibition of FX activation by FVII-5 was investigated. Varying concentrations of FVII-5 were incubated with different concentrations of Factor X in the presence or absence of TF and FVIIa.

[3] = biological target: T3, purified human FVIIa bound to recombinant human TF (apoTF/FVIIa) (Homo sapiens, UniProt P13726); assay: Assay of apoTF/FVIIa catalytic (amidolytic) activity; assay type: biochemical; settings: for IC50: read-out: IC50, Amidolytic apo TF Assay
T3 construct: purchased American Diagnostica (TF); Enzyme Research Laboratories (FVIIa) 4500 (TF); HFVlla (FVIIa)
Experimental: Assay of apoTF/FVIIa Catalytic Activity
This […] assay was used to measure directly the amidolytic (catalytic) activity of purified human FVIla when bound to recombinant human TF in the absence of phospholipid.
Reactions were performed in microtitre plate wells, using a final incubation volume of 200 uL. Test compounds, dissolved in water, (final concentration, 0-1 mM) were preincubated with recombinant human tissue factor (American Diagnostica, cat# 4500; 5 nM) and CaCl2 (5 mM) in Tris buffer (100 mM), pH 7.2, containing NaCl (150 mM) and BSA (1 mg/mL) at ambient temperature for 30 minutes. Factor Vlla (Enzyme Research Laboratories, cat# HFVlla; 5 nM) was added and the incubations continued for 60 minutes. Chromogenic substrate, S2288 (Chromogenix cat# 820852; 0.5 mM) was then added and the enzymatic activity of the tissue factor apoprotein/factor VII complex (apoTF/FVlla) was monitored at 405 nm.

[4] = biological target: T4, native TF/FVIIa complex on the surface of HT-1080 cells (Homo sapiens, UniProt P13726); assay: Assay of HT1080 cell surface TF/FVIIa mediated activation of FX (amidolytic microcarrier assay); assay type: cell-based
T4 construct: native TF/FVIIa complex on the surface of living cells expressing TF in their cell membrane; endogenous in cells; host or cells: HT-1080 human fibrosarcoma cells on Cytodex-3 microcarriers

[5] = tested on: coagulation factors of the intrinsic and common pathways of coagulation; assay: Coagulation assay initiated by contact activation (Cephotest); settings: all coagulation factors other than TF/FVII
Description: The effect of the peptides observed in the coagulation assay could conceivably have been due to effects on another one or more of the several components contributing to the coagulation cascade. This possibility was therefore tested by adding the peptides to coagulation assays which were initiated by contact activation (Cephotest™, Nycomed), and therefore involved coagulation factors of the intrinsic and common pathways of coagulation, i.e. all coagulation factors other than TF/FVII. […] Thus evidence was obtained that the effects observed in the TF/FVII initiated coagulation assay above were in fact due to a direct effect on the TF/FVII complex.

[6] = biological target: binding of Factor VII to tissue factor (Homo sapiens, UniProt P13726); assay: Inhibition of FVII/TF binding or FVII activity, assay not specified (summary statements)
[7] = biological target: Factor VII and tissue factor (Homo sapiens, UniProt P13726); settings: Corvas Inc., Table 1 of WO90/03390; cited from earlier work
Sequence of Factor VII and tissue factor (P13726 33-295, species assumed): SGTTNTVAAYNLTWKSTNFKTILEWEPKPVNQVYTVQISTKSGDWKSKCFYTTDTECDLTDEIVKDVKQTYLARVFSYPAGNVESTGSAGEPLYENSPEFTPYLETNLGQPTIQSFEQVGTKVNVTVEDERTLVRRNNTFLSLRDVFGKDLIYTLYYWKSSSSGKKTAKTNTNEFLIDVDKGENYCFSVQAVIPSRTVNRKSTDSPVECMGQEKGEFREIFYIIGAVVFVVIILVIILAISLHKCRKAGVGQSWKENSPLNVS

T1 sequence (P13726 33-295): as the sequence (P13726 33-295, species assumed) above
T3 sequence (P13726 33-295): as the sequence (P13726 33-295, species assumed) above
Sequence of FVII binding to immobilized rTF (P13726 33-295): as the sequence (P13726 33-295, species assumed) above
Sequence of binding of Factor VII to tissue factor (P13726 33-295): as the sequence (P13726 33-295, species assumed) above
T4 sequence (P13726 33-295, one chain of several): as the sequence (P13726 33-295, species assumed) above
T2 sequence (P13726 33-295): as the sequence (P13726 33-295, species assumed) above

| inhibition at 500 µM [2] | Inhibitory activity, in words [6] | Molecule | Effect on contact-activated coagulation (specificity) [5] | Inhibition of activation of Factor X by Factor VII and tissue factor as reported in WO90/03390 [7] | further results |
| --- | --- | --- | --- | --- | --- |
| 30% | – | Ac-SDHTGTKRS-NH2 [103-111] | inactive | – | IC50 ([4]; HT-1080 cells on microcarriers): 870 µM; inhibition at 500 µM [1]: 59%; IC50 [3]: 2200 µM |
| – | relatively active | CHEGYSLLADGVSC [114-127, FVII residues 114-127] | – | zero inhibitory acticity | – |
| – | most active inhibitor so far tested | NGGCEQYCSD [95-104, FVII residues 95 to 104] | inactive | – | Inhibition of FVII binding to rTF, in words ([1]; peptides at 0.5 mM (FIG. 13)): inhibitors |

The remaining lines, values behind:

| Molecule | inhibition at 500 µM [2] | Inhibitory activity, in words [6] | Effect on contact-activated coagulation (specificity) [5] | Inhibition of activation of Factor X by Factor VII and tissue factor as reported in WO90/03390 [7] | further results |
| --- | --- | --- | --- | --- | --- |
| CC(C)C[C@@H]1NC(=O)[C@@H](N)CSSC[C@@H](C(=O)O)NC(=O)[C@H](CC(N)=O)NC(=O)[C@H](CCCNC(=N)N)NC(=O)CNC(=O)[C@H](CCC(=O)O)NC(=O)[C@H](Cc2ccccc2)NC(=O)[C@H](C)NC(=O)[C@@H]2CCCN2C1=O [72-81(C)] | 22% | – | – | – | inhibition at 500 µM [1]: 89% |
| CC(C)[C@@H]1NC(=O)[C@@H](N)CSSC[C@@H](C(=O)O)NC(=O)[C@H](Cc2ccc(O)cc2)NC(=O)[C@H](CCC(N)=O)NC(=O)[C@H](CCC(=O)O)NC(=O)[C@H](CS)NC(=O)CNC(=O)CNC(=O)[C@H](CC(N)=O)NC(=O)[C@H](CCC(=O)O)NC(=O)[C@H](CC(N)=O)NC1=O [91-102(C)] (H-CVNENGGCEQYC-OH; disulfide 1-12 (inferred)) | – | – | – | – | Mode of inhibition of Factor X activation (FVIIa/TF): noncompetitive inhibition |
| CC(C)[C@H](NC(=O)[C@@H](N)CS)C(=O)N[C@@H](CC(N)=O)C(=O)N[C@@H](CCC(=O)O)C(=O)N[C@@H](CC(N)=O)C(=O)NCC(=O)NCC(=O)N[C@@H](CS)C(=O)N[C@@H](CCC(=O)O)C(=O)N[C@@H](CCC(N)=O)C(=O)N[C@@H](Cc1ccc(O)cc1)C(=O)N[C@@H](CS)C(=O)O [91-102(L)] (H-CVNENGGCEQYC-OH; N-terminus and C-terminus assumed) | 14% | – | – | – | IC50 [1]: 60 µM; IC50 [3]: 1140 µM |
| CC(C)C[C@@H]1NC(=O)[C@H](CC(C)C)NC(=O)[C@H](CO)NC(=O)[C@H](Cc2ccc(O)cc2)NC(=O)CNC(=O)[C@H](CCC(=O)O)NC(=O)[C@H](Cc2c[nH]cn2)NC(=O)[C@@H](N)CSSC[C@@H](C(=O)O)NC(=O)[C@H](CO)NC(=O)[C@H](C(C)C)NC(=O)CNC(=O)[C@H](CC(=O)O)NC(=O)[C@H](C)NC1=O [114-127(C)] (H-CHEGYSLLADGVSC-OH; disulfide 1-14) | 44% | – | – | – | inhibition at 500 µM [1]: 77%; inhibition at 500 µM ([3]; peptide 0.5 mM, did not reach near-quantitative inhibition at 1 mM, read-out: % inhibition at 0.5 mM, Amidolytic apo TF Assay): 21% |
| CLPAFEGRNC [72-81] | – | – | – | zero inhibitory acticity | Synergistic enhancement of the inhibitory action of peptides of the sequence 91 to 104 ([6]; in combination): acted synergistically |
| CVNENGGCEQYC [91-102, FVII residues 91-102] | – | particularly active | inactive | zero inhibitory acticity | – |
| Hirudin [reference compound] | – | – | strongly inhibitory | – | – |
| SDHTGTKRSC [reference compound] | – | only moderate activity | – | active | Inhibitor of the binding of Factor VII to tissue factor, in words [6]: rather poor inhibitor |
| TAP: tick anticoagulant polypeptide; control inhibitor of FX (YNRLCIKPRDWIDECDSNEGGERAYFRNGKGGCDSFWICPEDHTGADYYSSYRDCFNACI; UniProt P17726 1-60, looked up) [reference compound] | – | – | strongly inhibitory | – | Inhibition of FXa amidolytic activity generated by HT-1080 cell-surface TF/FVIIa ([4]; HT-1080 cells): inhibition of activity |

— patent publication US5962418A, “Factor VII-derived peptides” (Nycomed Imaging A/S, priority 1993, dated 1999)
